# Columns and labels:
# Assay in all cases: Biomarker study proliferation (CellTiter-Glo)
# Assay type in all cases: cell-based
# CORL88 = system: CORL88
# Outline: (§1)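 Overnight-plated cells (5000/well, 37 °C, 5% CO2) receive compound diluted through an OPTIMEM + 10% FBS intermediate plate. After one week, CellTiter-Glo is added and luminescence is read.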
# EBC1 = system: EBC1
# Outline: as §1
# NCIH358 = system: NCIH358
# Outline: as §1
# PLCPRF5 = system: PLCPRF5
# Outline: as §1
# HCC1143 = system: HCC1143
# Outline: as §1
# TOV112D = system: TOV112D
# Outline: as §1
# JHH4 = system: JHH4
# Outline: as §1
# OVCAR5 = system: OVCAR5
# Outline: as §1
# COLO201 = system: COLO201
# Outline: as §1
# NCIH226 = system: NCIH226
# Outline: as §1
# SH10TC = system: SH10TC
# Outline: as §1
# DU145 = system: DU145
# Outline: as §1
# CT26 = system: CT26
# Outline: as §1
# JHH7 = system: JHH7
# Outline: as §1
# NCIH727 = system: NCIH727
# Outline: as §1
# NCIH460 = system: NCIH460
# Outline: as §1
# MX1 = system: MX1
# Outline: as §1
# KYSE150 = system: KYSE150
# Outline: as §1
smiles,measurement,setting,value
"Cc1cc(NC2CCN(C(=O)O[C@H]3CCN(C(=O)/C=C/CN(C)C)C3)CC2)n2ncc(C(C)C)c2n1 [Example 1, [(3S)-1-[(E)-4-(dimethylamino)but-2-enoyl]pyrrolidin-3-yl] 4-[(3-isopropyl-5-methyl-pyrazolo[1,5-a]pyrimidin-7-yl)amino]piperidine-1-carboxylate]",Anti-proliferation effect % Inh.,"CORL88; CORL88, LUNG, 7 days",34%
same,Anti-proliferation effect Outcome,"CORL88; CORL88, LUNG, 7 days",Insensitive (insensitive (IC50≥1 μM))
same,IC50,"CORL88; Homo sapiens, COR-L88, 168 h, read-out: Anti-proliferation effect IC50",4.2 µM
same,Anti-proliferation effect % Inh.,"EBC1; EBC1, LUNG, 7 days",83%
same,Anti-proliferation effect Outcome,"EBC1; EBC1, LUNG, 7 days",Cytotoxic (cytotoxic (IC50<1 μM and % inhibition ≥70%))
same,IC50,"EBC1; Homo sapiens, EBC-1, 168 h, read-out: Anti-proliferation effect IC50",0.047 µM
same,IC50,"NCIH358; Homo sapiens, NCI-H358, 168 h, read-out: Anti-proliferation effect IC50",0.042 µM
same,Anti-proliferation effect % Inh.,"NCIH358; NCIH358, LUNG, 7 days",93%
same,Anti-proliferation effect Outcome,"NCIH358; NCIH358, LUNG, 7 days",Cytotoxic (cytotoxic (IC50<1 μM and % inhibition ≥70%))
same,IC50,"PLCPRF5; Homo sapiens, PLC-PRF-5, 168 h, read-out: Anti-proliferation effect IC50",> 10 µM
same,Anti-proliferation effect % Inh.,"PLCPRF5; PLCPRF5, LIVER, 7 days",41%
same,Anti-proliferation effect Outcome,"PLCPRF5; PLCPRF5, LIVER, 7 days",Insensitive (insensitive (IC50≥1 μM))
same,Anti-proliferation effect % Inh.,"HCC1143; HCC1143, BREAST, 7 days",37%
same,Anti-proliferation effect Outcome,"HCC1143; HCC1143, BREAST, 7 days",Insensitive (insensitive (IC50≥1 μM))
same,IC50,"HCC1143; Homo sapiens, HCC1143, 168 h, read-out: Anti-proliferation effect IC50",> 10 µM
same,IC50,"TOV112D; Homo sapiens, 168 h, read-out: Anti-proliferation effect IC50",0.025 µM
same,Anti-proliferation effect % Inh.,"TOV112D; OVARY, 7 days",81%
same,Anti-proliferation effect Outcome,"TOV112D; OVARY, 7 days",Cytotoxic (cytotoxic (IC50<1 μM and % inhibition ≥70%))
same,Anti-proliferation effect % Inh.,"JHH4; JHH4, LIVER, 7 days",65%
same,Anti-proliferation effect Outcome,"JHH4; JHH4, LIVER, 7 days",Cytostatic (cytostatic (IC50<1 μM and % inhibition <70%))
same,IC50,"JHH4; JHH-4, 168 h, read-out: Anti-proliferation effect IC50",0.166 µM
same,IC50,"OVCAR5; Homo sapiens, OVCAR-5, 168 h, read-out: Anti-proliferation effect IC50",0.086 µM
same,Anti-proliferation effect % Inh.,"OVCAR5; OVCAR5, OVARY, 7 days",74%
same,Anti-proliferation effect Outcome,"OVCAR5; OVCAR5, OVARY, 7 days",Cytotoxic (cytotoxic (IC50<1 μM and % inhibition ≥70%))
same,Anti-proliferation effect % Inh.,"COLO201; COLO201, INTESTINE, 7 days",61%
same,Anti-proliferation effect Outcome,"COLO201; COLO201, INTESTINE, 7 days",Cytostatic (cytostatic (IC50<1 μM and % inhibition <70%))
same,IC50,"COLO201; Homo sapiens, COLO 201, 168 h, read-out: Anti-proliferation effect IC50",0.123 µM
same,IC50,"NCIH226; Homo sapiens, NCI-H226, 168 h, read-out: Anti-proliferation effect IC50",1.2 µM
same,Anti-proliferation effect % Inh.,"NCIH226; NCIH226, LUNG, 7 days",43%
same,Anti-proliferation effect Outcome,"NCIH226; NCIH226, LUNG, 7 days",Insensitive (insensitive (IC50≥1 μM))
same,Anti-proliferation effect % Inh.,"SH10TC; SH10TC, STOMACH, 7 days",58%
same,Anti-proliferation effect Outcome,"SH10TC; SH10TC, STOMACH, 7 days",Cytostatic (cytostatic (IC50<1 μM and % inhibition <70%))
same,IC50,"SH10TC; SH-10-TC, 168 h, read-out: Anti-proliferation effect IC50",0.147 µM
same,Anti-proliferation effect % Inh.,"DU145; DU145, PROSTATE, 7 days",74%
same,Anti-proliferation effect Outcome,"DU145; DU145, PROSTATE, 7 days",Cytotoxic (cytotoxic (IC50<1 μM and % inhibition ≥70%))
same,IC50,"DU145; Homo sapiens, DU-145, 168 h, read-out: Anti-proliferation effect IC50",0.036 µM
same,Anti-proliferation effect % Inh.,"CT26; CT26, INTESTINE, 7 days",−47%
same,Anti-proliferation effect Outcome,"CT26; CT26, INTESTINE, 7 days",Insensitive (insensitive (IC50≥1 μM))
same,IC50,"CT26; Mus musculus, CT26, 168 h, read-out: Anti-proliferation effect IC50",> 10 µM
same,IC50,"JHH7; JHH7, 168 h, read-out: Anti-proliferation effect IC50",0.027 µM
same,Anti-proliferation effect % Inh.,"JHH7; JHH7, LIVER, 7 days",88%
same,Anti-proliferation effect Outcome,"JHH7; JHH7, LIVER, 7 days",Cytotoxic (cytotoxic (IC50<1 μM and % inhibition ≥70%))
same,IC50,"NCIH727; Homo sapiens, NCI-H727, 168 h, read-out: Anti-proliferation effect IC50",0.117 µM
same,Anti-proliferation effect % Inh.,"NCIH727; NCIH727, LUNG, 7 days",56%
same,Anti-proliferation effect Outcome,"NCIH727; NCIH727, LUNG, 7 days",Cytostatic (cytostatic (IC50<1 μM and % inhibition <70%))
same,IC50,"NCIH460; Homo sapiens, NCI-H460, 168 h, read-out: Anti-proliferation effect IC50",0.047 µM
same,Anti-proliferation effect % Inh.,"NCIH460; NCIH460, LUNG, 7 days",97%
same,Anti-proliferation effect Outcome,"NCIH460; NCIH460, LUNG, 7 days",Cytotoxic (cytotoxic (IC50<1 μM and % inhibition ≥70%))
same,IC50,"MX1; Homo sapiens, MX1, 168 h, read-out: Anti-proliferation effect IC50",0.045 µM
same,Anti-proliferation effect % Inh.,"MX1; MX1, BREAST, 7 days",72%
same,Anti-proliferation effect Outcome,"MX1; MX1, BREAST, 7 days",Cytotoxic (cytotoxic (IC50<1 μM and % inhibition ≥70%))
same,IC50,"KYSE150; Homo sapiens, KYSE-150, 168 h, read-out: Anti-proliferation effect IC50",0.042 µM
same,Anti-proliferation effect % Inh.,"KYSE150; KYSE150, OESOPHAGUS, 7 days",64%
same,Anti-proliferation effect Outcome,"KYSE150; KYSE150, OESOPHAGUS, 7 days",Cytostatic (cytostatic (IC50<1 μM and % inhibition <70%))

# Source: US20210032257A1, “(E)-1-(4-(DIMETHYLAMINO)BUT-2-ENOYL)PYRROLIDIN-3-YL 4-((3-ISOPROPYL-5-METHYLPYRAZOLO[1,5-A]PYRIMIDIN-7-YL)AMINO)PIPERIDINE-1-CARBOXYLATE FOR INHIBITING CDK7” (Eli Lilly and Company, priority 2017, published 2021)
